Assay results as given in patent US20220273588A1, “MONOAMINE OXIDASE B INHIBITORS FOR USE IN THE PREVENTION OR TREATMENT OF PROSTATE CARCINOMA” (TOXIE EUROPE INTELLIGENS KÉMIAI SZENZOROKAT KUTATÓ, …, priority 2019, published 2022).

Legend:
LNCaP cells [1] = assay: MTS reduction viability assay on LNCaP cells; type: cell-based, human; settings: MTS method
Protocol: (§1) RPMI-1640 (Lonza) medium with 10% heat-inactivated FBS (fetal bovine serum, Sigma) and 100 U/ml Penicillin/Streptomycin was used to grow the cells. Cells were treated with drugs freshly dissolved in RPMI medium. Treatment concentrations were determined by widening the concentration range. After 48 h of treatment, cell viability was also quantified using the MTS reduction assay (Promega) as well as a CellTiter-Glo kit (Promega) based on ATP level measurements.
In the MTS reduction method (CellTiter 96® AQueous One Solution Cell Proliferation Assay, Promega Corp, Madison, […].), 20 microliters of MTS reagent was used per sample according to the manufacturer's protocol, and after 120 minutes of incubation, absorbance was measured at 492 nm with a microplate reader.
In the studies, we modified the protocol of Gordon et al (2014) as follows: • A volume of 20 microliters per well was used from the MTS reagent as recommended by the manufacturer (10 microliters were used by Grodon et al.). • In our case, an incubation time of 120 min was used to increase accuracy (Gordon et al incubated for 60 min). […] During validation, measurements were performed with a given number of cells per well, and absorbance values were plotted as a function of cell number. A calibration line was placed on the data points by linear regression analysis and the R^2 coefficient of determination was determined. […]

LNCaP cells [2] = assay: CellTiter-Glo (ATP level) viability assay on LNCaP cells; type: cell-based, human; settings: for viability of LNCaP cells, summary of the study: concentration-dependent manner, 48 h; for viability of LNCaP cells: 48 hours of treatment
Protocol: as §1
(§2) The CellTiter-Glo assay based on ATP level measurements was performed according to the manufacturer's protocol of pipetting 100 microliters of Celliter-Glo reagent into wells containing 100 microliters of medium, then shaking for 2 minutes and incubating for another 10 minutes. The luminescence signal was then detected with a PerkinElmer AlphaLisa instrument.
To reproduce the literature data, we also used the unpaired t-test also used by Gordon et al (2014) to compare control and treated groups. […] For some results (LNCaP chlororlin MTS method and LNCaP rasagiline and selegiline CellTiter-Glo method) Kruskal-Wallis non-parametric one-way ANOVA method was used with Dunn test, while in other cases one-way ANOVA method was used with Bonferroni post hoc test.
(§3) In our experiments, we performed three parallel experiments, and the experiments were repeated to increase the number of items. For the statistical analysis of two separate experiments the results were pooled, however, the absolute values obtained during the luminescence measurements cannot be used to combine the results. This is because the CellTiter-Glo reagent loses its activity during storage and possible thaw-freeze cycles. Thus, a CellTiter-Glo reagent from a single source can give different relative luminescence values (RLUs) at the same cell number in two different experiments performed at different times. However, in one experiment, the RLU reliably gives the cell number, and accordingly, the percentage viability value of the treated condition relative to the control RLU can be determined with certainty; values from different experimental series can be combined.
(§4) During the evaluation, we normalized to the mean of the control of the given experiment, so the mean of the control was 100% and the percentage of each individual data point relative to the mean of the control was calculated accordingly. One-way ANOVA with Bonferroni post hoc test with p<0.05 significance level was used for statistical validation of viability changes as described above.

PC3 cells = assay: CellTiter-Glo (ATP level) viability assay on PC3 cells; type: cell-based, human; settings: 48 h; for viability of PC3 cells: CellTiter-Glo; for viability of PC3 cells, summary of the study: concentration-dependent manner
Protocol: as §1, §2
To support the applicability of the CellTiter-Glo viability assay method, we validated the method on a PC3 cell line. In this procedure, the measurement was performed with a given number of living cells per well, and the relative luminescence values obtained were plotted as a function of the cell number. A calibration line was placed on the data points by linear regression analysis, and based on the R2 value, it was determined that the relative luminescence value obtained during the measurement was directly proportional to the number of living cells (FIG. 1/C).
as §3, §4

human PC3 xenograft = assay: Tumor growth in NSG SCID mouse human PC3 xenograft model; type: in vivo; settings: 10 mg/kg i.p. once daily from day 14, day 21
Description: For our experiments, we used 25 3-month-old male NOD (Non Obese Diabetic) SCID (Severe Combined ImmunoDeficiency) Gamma mice (National Institute of Oncology Animal House). Immunodeficiency in these mice (Shultz et al, 1995) is associated with decreased T and B lymphocyte and NK cell function, as well as deficiency is developed in cytokine signaling pathways, in adaptive and innate immune systems. During the experiment, the animals were housed in the animal house of the János Szentágothai Research Center of the University of Pecs, and they were provided with standard rodent food and tap water ad libitum. The animals were kept at 20-24° C., 50-60% relative humidity, in a 12-12 hour dark-light cycle. […]
RPMI-1640 (Lonza) medium with 10% heat-inactivated FBS (Sigma) and 100 U/ml Penicillin/Streptomycin was used to proliferate the PC3 cell line (Wesel, Germany), which was also used for in vitro experiments. […] Cell counts were determined after trypan blue staining with a LUNA II automated cell counter (Logos Biosystems) and 50 million cells were resuspended in 5 ml PBS. […]
On days 4, 7, 11, 14, 18, and 21 of the experiment, the length (a) and width (b) of the growing tumor were measured with a caliper, and then the tumor volume was calculated using the following formula (J B Wu et al., J Clin Invest., 124, 2891-2908): […]

[3] = test system: androgen-sensitive and castration-resistant human prostate cells; settings: literature preclinical study; cited from earlier work
[4] = test system: PC3 prostate carcinoma cell line; assay: CellTiter-Glo viability assay on PC3 cells, selegiline, docetaxel and combinations; type: cell-based, human; settings: 48 hours
Protocol: In our studies, we used a […] PC3 prostate carcinoma cell line. The culture of the cell line and the study of the effect of the combination of docetaxel and selegiline were performed as previously described, with the changes detailed below.
Selegiline, docetaxel, and selegiline+docetaxel combination studies were performed in parallel, simultaneously, with the same reagents, on a cell population from the same cell culture. For the selegiline, docetaxel and selegiline+docetaxel combination studies, the following changes were applied from the protocol according to the examples of the application: • Treatments with selegiline alone were performed at concentrations ranging from 250 μM to 1 mM (250 μM, 500 μM, 750 μM, 1 mM), while docetaxel alone was administered at a concentration of 1 μM. For combination treatments, 1 μM docetaxel was added to the concentrations corresponding to the selegiline treatments (250 μM selegiline+1 μM docetaxel, 500 μM selegiline+1 μM docetaxel, 750 μM selegiline+1 μM docetaxel, 1 mM selegiline+1 μM docetaxel). • For docetaxel and combination treatments, a 0.01% dimethyl sulfoxide (DMSO) solution prepared with complete RPMI medium (10% FBS, 100 U/ml Penicillin/Streptomycin; solution for culturing and treating PC3 cells) was used as a control. This was used as a solvent control, corresponding to the use of DMSO to prepare a 10 mM docetaxel stock solution. Thus, the 1 μM docetaxel treatments we used also contained 0.01% DMSO. • The change in cell viability induced by selegiline, docetaxel, and combinations thereof was measured after 48 hours with the CellTiter-Glo kit as previously described. • The experiments were performed in 3 different series, and for evaluation they were combined with the previously described normalization. Briefly, during the evaluation, we normalized to the mean of the untreated control in the given experiment, so the mean of the control was 100% and the percentage of each individual data point relative to the mean of the control was calculated accordingly. Because treatments with selegiline and docetaxel alone or in combination were performed in one experiment, we normalized to the mean of the untreated control without DMSO. […] A Shapiro-Wilk and Kolmogorov-Smirnov normality test was performed on the data set, followed by a one-way ANOVA test with a Holm-Sidak's multiple comparison test.

[5] = test system: metastatic castration-resistant disease; settings: patients; cited from earlier work

Row | SMILES | viability of LNCaP cells, summary of the study (LNCaP cells [2]) | viability of PC3 cells (PC3 cells; 1 mM) | viability of PC3 cells, summary of the study (PC3 cells) | rate of tumor growth compared to the group treated with physiological saline (human PC3 xenograft) | growth and proliferation of androgen-sensitive and castration-resistant human prostate cells [3] | viability of LNCaP cells (LNCaP cells [2]; 1 mM, CellTiter-Glo) | viability of LNCaP cells (LNCaP cells [2]; 10 mM, CellTiter-Glo) | viability of PC3 cells (PC3 cells; 10 mM) | further results
1 | C#CCN(C)CCCOc1ccc(Cl)cc1Cl [clorgylin] | significantly reduced | significantly reduced | significantly reduced | significantly reduced | inhibited |  |  |  | viability of LNCaP cells (LNCaP cells [1]; 100 micromolar, 48 h of treatment): significantly reduced; viability of LNCaP cells, concentration dependence (LNCaP cells [1]; 48 h): concentration-dependent manner; viability of LNCaP cells, CellTiter-Glo compared with MTS method (LNCaP cells [2]; 48 h clorgylin treatment, CellTiter-Glo): results similar to the MTS method; viability of PC3 cells (PC3 cells; 100 micromolar): significantly reduced; growth of enzalutamide-resistant cells [3]: significantly reduced
2 | CC(=O)O[C@@]12CO[C@@H]1C[C@H](O)[C@@]1(C)C(=O)[C@H](O)C3=C(C)[C@@H](OC(=O)[C@H](O)[C@@H](NC(=O)OC(C)(C)C)c4ccccc4)C[C@@](O)([C@@H](OC(=O)c4ccccc4)[C@H]21)C3(C)C [docetaxel] |  |  |  |  |  |  |  |  | cell viability compared to the DMSO control ([4]; 1 μM): significantly reduced cell viability; increase of overall survival, average [5]: 2-3 months
3 | NNCCc1ccccc1 [phenelzine] |  |  |  |  | inhibited |  |  |  | 
4 | C#CCN[C@@H]1CCc2ccccc21 [rasagiline] | significantly reduced | significant viability-reducing effect | significantly reduced |  |  | trend is also clearly observed | significant viability-reducing effect | significant viability-reducing effect | 
5 | C#CCN(C)[C@H](C)Cc1ccccc1 [selegiline] | significantly reduced | significant viability-reducing effect | significantly reduced | significantly reduced |  | trend is also clearly observed | significant viability-reducing effect | significant viability-reducing effect | viability of PC3 cells, concentration dependence ([4]; 250 μM to 1 mM): concentration-dependent manner; viability of PC3 cells ([4]; 750 μM, Example 3 series): significant decrease in viability; viability of PC3 cells, effect of Example 1 ([4]; 1 mM, Example 3 series): reproduced
